Literature values, collected in US20250114332A1 (LABORATORIOS SILANES S.A. DE C.V., priority 2023, published 2025).
Where two headings read alike, the source gives them in different places.

Conditions: drug substance

| Structure (SMILES) | Biopharmaceutical classification | Biopharmaceutical classification (listed as acetaminophen) |
| --- | --- | --- |
| CC(=O)Nc1ccc(O)cc1 [Acetaminophen, N-(4-hydroxyphenyl) acetamide] | Group III (high solubility and low permeability) | group III |
| Cc1ccc(-c2cc(C(F)(F)F)nn2-c2ccc(S(N)(=O)=O)cc2)cc1 [Celecoxib] | Belongs to group II (high permeability and low | – |
